One block for each molecule: values may come before it.
Tested on: 186277-243-T-J2-PDC multi-cell spheroid viability
Assay: Anticancer human tumor 186277-243-T-J2-PDC patient-derived colon adenocarcinoma cell line growth inhibition [PI3K]
Details: for IC50: curve of first compound; for viability, T/C: stronger effect = lower value
How it was run: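 Tumor cells were combined with HUVEC and MSCs into spheroids, then dosed with PI3K-inhibitor combinations over half-log ranges capped near clinical Cmax or 10 microM.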

[1] = second compound 0.00316 µM, first compound 0.0316 µM
[2] = second compound 0.00316 µM, first compound 0.1 µM
[3] = second compound 0.01 µM, first compound 0.0316 µM
[4] = second compound 0.01 µM, first compound 0.1 µM
[5] = second compound 0.0316 µM, first compound 0.0316 µM
[6] = second compound 0.0316 µM, first compound 0.1 µM
[7] = second compound 0.1 µM, first compound 0.0316 µM
[8] = second compound 0.1 µM, first compound 0.1 µM
[9] = second compound 0.316 µM, first compound 0.0316 µM
[10] = second compound 0.316 µM, first compound 0.1 µM
[11] = second compound 1 µM, first compound 0.0316 µM
[12] = second compound 1 µM, first compound 0.1 µM
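Also: spheroids exposed to compounds for seven days before viability reading.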
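For viability, T/C in this document: 100% = DMSO vehicle control viability.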

IC50 (second compound 0.00316 µM): 1870 nM | IC50 (second compound 0.01 µM): 1770 nM | IC50 (second compound 0.0316 µM): 1470 nM | IC50 (second compound 0.1 µM): 377 nM | IC50 (second compound 0.316 µM): 74.7 nM | IC50 (second compound 1 µM): < 31.6 nM
SMILES: Cn1nccc1Nc1nccc(-c2ccn(C(CO)c3ccc(Cl)c(F)c3)c(=O)c2)n1 (centres undefined) + CC(Nc1ccc2c(c1)OCCn1cc(N3C(=O)OCC3C(F)F)nc1-2)C(N)=O
viability, T/C [1]: 105% | viability, T/C [2]: 114% | viability, T/C (second compound 0.00316 µM, first compound 0.316 µM): 113% | viability, T/C (second compound 0.00316 µM, first compound 1 µM): 69.3% | viability, T/C (second compound 0.00316 µM, first compound 3.16 µM): 37.2% | viability, T/C (second compound 0.00316 µM, first compound 10 µM): 22.8% | viability, T/C [3]: 111% | viability, T/C [4]: 121% | viability, T/C (second compound 0.01 µM, first compound 0.316 µM): 109% | viability, T/C (second compound 0.01 µM, first compound 1 µM): 67.3% | viability, T/C (second compound 0.01 µM, first compound 3.16 µM): 33.5% | viability, T/C (second compound 0.01 µM, first compound 10 µM): 22% | viability, T/C [5]: 103% | viability, T/C [6]: 110% | viability, T/C (second compound 0.0316 µM, first compound 0.316 µM): 98.4% | viability, T/C (second compound 0.0316 µM, first compound 1 µM): 61.1% | viability, T/C (second compound 0.0316 µM, first compound 3.16 µM): 28.1% | viability, T/C (second compound 0.0316 µM, first compound 10 µM): 20.9% | viability, T/C [7]: 124% | viability, T/C [8]: 86.5% | viability, T/C (second compound 0.1 µM, first compound 0.316 µM): 54.2% | viability, T/C (second compound 0.1 µM, first compound 1 µM): 28.9% | viability, T/C (second compound 0.1 µM, first compound 3.16 µM): 16.4% | viability, T/C (second compound 0.1 µM, first compound 10 µM): 7.14% | viability, T/C [9]: 70.4% | viability, T/C [10]: 44.5% | viability, T/C (second compound 0.316 µM, first compound 0.316 µM): 20.3% | viability, T/C (second compound 0.316 µM, first compound 1 µM): 15.9% | viability, T/C (second compound 0.316 µM, first compound 3.16 µM): 9.67% | viability, T/C (second compound 0.316 µM, first compound 10 µM): 4.2% | viability, T/C [11]: 38.1% | viability, T/C [12]: 29.4% | viability, T/C (second compound 1 µM, first compound 0.316 µM): 14.2% | viability, T/C (second compound 1 µM, first compound 1 µM): 9.05% | viability, T/C (second compound 1 µM, first compound 3.16 µM): 10.6% | viability, T/C (second compound 1 µM, first compound 10 µM): 3.67%

IC50 (second compound 0.00316 µM): 52.9 nM | IC50 (second compound 0.01 µM): 55.2 nM | IC50 (second compound 0.0316 µM): 47.5 nM | IC50 (second compound 0.1 µM): 30.4 nM | IC50 (second compound 0.316 µM): 8.51 nM | IC50 (second compound 1 µM): < 0.316 nM
SMILES: CC(C)n1nc(-c2ccc3oc(N)nc3c2)c2c(N)ncnc21 + CC(Nc1ccc2c(c1)OCCn1cc(N3C(=O)OCC3C(F)F)nc1-2)C(N)=O
viability, T/C (second compound 0.00316 µM, first compound 0.000316 µM): 90% | viability, T/C (second compound 0.00316 µM, first compound 0.001 µM): 101% | viability, T/C (second compound 0.00316 µM, first compound 0.00316 µM): 104% | viability, T/C (second compound 0.00316 µM, first compound 0.01 µM): 93.7% | viability, T/C [1]: 75.1% | viability, T/C [2]: 19.1% | viability, T/C (second compound 0.01 µM, first compound 0.000316 µM): 116% | viability, T/C (second compound 0.01 µM, first compound 0.001 µM): 87.5% | viability, T/C (second compound 0.01 µM, first compound 0.00316 µM): 113% | viability, T/C (second compound 0.01 µM, first compound 0.01 µM): 93.1% | viability, T/C [3]: 73.5% | viability, T/C [4]: 25.3% | viability, T/C (second compound 0.0316 µM, first compound 0.000316 µM): 107% | viability, T/C (second compound 0.0316 µM, first compound 0.001 µM): 116% | viability, T/C (second compound 0.0316 µM, first compound 0.00316 µM): 97.9% | viability, T/C (second compound 0.0316 µM, first compound 0.01 µM): 89.9% | viability, T/C [5]: 69.7% | viability, T/C [6]: 17.5% | viability, T/C (second compound 0.1 µM, first compound 0.000316 µM): 95.8% | viability, T/C (second compound 0.1 µM, first compound 0.001 µM): 94.2% | viability, T/C (second compound 0.1 µM, first compound 0.00316 µM): 92.5% | viability, T/C (second compound 0.1 µM, first compound 0.01 µM): 82.4% | viability, T/C [7]: 48.8% | viability, T/C [8]: 8.12% | viability, T/C (second compound 0.316 µM, first compound 0.000316 µM): 81.7% | viability, T/C (second compound 0.316 µM, first compound 0.001 µM): 80.3% | viability, T/C (second compound 0.316 µM, first compound 0.00316 µM): 63.5% | viability, T/C (second compound 0.316 µM, first compound 0.01 µM): 49.7% | viability, T/C [9]: 22.6% | viability, T/C [10]: 6.29% | viability, T/C (second compound 1 µM, first compound 0.000316 µM): 46.9% | viability, T/C (second compound 1 µM, first compound 0.001 µM): 39.3% | viability, T/C (second compound 1 µM, first compound 0.00316 µM): 37.6% | viability, T/C (second compound 1 µM, first compound 0.01 µM): 24.3% | viability, T/C [11]: 8.53% | viability, T/C [12]: 3.88%

From PubChem BioAssay AID1963983 (Molecular Pharmacology Branch, DTP, NCI, 2024)
